Measured values taken from the supplement of paper PMC10307832.

The cell lines below were run with CC(C)(C)c1nc(-c2cccc(NS(=O)(=O)c3c(F)cccc3F)c2F)c(-c2ccnc(N)n2)s1 [Dabrafenib] + C[C@@H](Oc1cc(-c2cnn(C3CCNCC3)c2)cnc1N)c1c(Cl)ccc(F)c1Cl [Crizotinib] (partner 1 µM) (assay: relative viability (nuclei count vs DMSO), 5 days (fraction); higher = more cells survive). Settings: first compound 0.003 µM.
In short: (§1)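 Each reported value is a median over duplicate plates. It expresses relative viability: treated-well nuclei count divided by vehicle-well nuclei count. Lung cancer cell lines in 1536-well plates were dosed by pin tool a day after seeding, alone with one drug or with a fixed anchor-drug dose plus five library-drug doses (not always all listed) in √10 steps, and nuclei were counted after 5 days.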

Going from CAL-12T to NCI-H1944, the relative viability rises from 0.502 to 1.13.

First: NCI-H2085
Second: IA-LM
The relative viability of the first is lower: 0.97 for the first, 1.01 for the second.

Going from NCI-H2228 to NCI-H2170, the relative viability rises from 0.457 to 1.28.

Going from NCI-H1703 to LCLC-103H, the relative viability falls from 1.09 to 1.

Going from NCI-H1299 to A549, the relative viability falls from 1.01 to 0.805.

First: NCI-H1650
Second: Calu-6
The relative viability of the first is higher: 1.04 for the first, 0.681 for the second.

Same assay, conditions: first compound 0.009487 µM

Going from ABC-1 to CAL-12T, the relative viability falls from 1.11 to 0.752.

Going from NCI-H1944 to NCI-H2085, the relative viability falls from 1.09 to 0.881.

First: IA-LM
Second: NCI-H2228
The relative viability of the first is higher: 0.756 for the first, 0.504 for the second.

Compared with NCI-H441, NCI-H2170 is higher in relative viability: 0.746 for the first, 1.24 for the second.

Going from NCI-H1703 to LCLC-103H, the relative viability rises from 0.76 to 1.13.

Compared with NCI-H1299, A549 is lower in relative viability: 0.91 for the first, 0.763 for the second.

Going from NCI-H1650 to ChaGo-K-1, the relative viability falls from 1.21 to 1.16.

First: Calu-6
Second: EBC-1
The relative viability of the first is higher: 0.833 for the first, 0.193 for the second.

Same assay, conditions: first compound 0.03 µM

First: ABC-1
Second: CAL-12T
The relative viability of the first is higher: 1.02 for the first, 0.728 for the second.

Compared with NCI-H1944, NCI-H2085 is lower in relative viability: 1.05 for the first, 0.838 for the second.

Compared with IA-LM, NCI-H2228 is lower in relative viability: 0.702 for the first, 0.52 for the second.

Compared with NCI-H441, NCI-H2170 is higher in relative viability: 0.694 for the first, 0.96 for the second.

First: NCI-H1703
Second: LCLC-103H
The relative viability of the first is lower: 0.584 for the first, 0.935 for the second.

Going from NCI-H1299 to A549, the relative viability falls from 0.961 to 0.887.

First: NCI-H1650
Second: ChaGo-K-1
The relative viability of the first is lower: 0.907 for the first, 1.15 for the second.

Compared with Calu-6, EBC-1 is lower in relative viability: 0.786 for the first, 0.207 for the second.

Same assay, conditions: first compound 0.09487 µM

First: ABC-1
Second: CAL-12T
The relative viability of the first is higher: 0.961 for the first, 0.582 for the second.

First: NCI-H1944
Second: NCI-H2085
The relative viability of the first is higher: 0.971 for the first, 0.919 for the second.

Going from IA-LM to NCI-H2228, the relative viability falls from 0.628 to 0.495.

First: NCI-H441
Second: NCI-H2170
The relative viability of the first is lower: 0.593 for the first, 1.02 for the second.

First: NCI-H1703
Second: LCLC-103H
The relative viability of the first is lower: 0.609 for the first, 1.17 for the second.

Compared with NCI-H1299, A549 is lower in relative viability: 0.882 for the first, 0.737 for the second.

Going from NCI-H1650 to ChaGo-K-1, the relative viability rises from 0.995 to 1.03.

Compared with Calu-6, EBC-1 is lower in relative viability: 0.555 for the first, 0.196 for the second.

Same assay, conditions: first compound 0.3 µM

First: ABC-1
Second: CAL-12T
The relative viability of the first is higher: 1.34 for the first, 0.791 for the second.

Going from NCI-H1944 to NCI-H2085, the relative viability falls from 1.03 to 0.873.

Compared with IA-LM, NCI-H2228 is higher in relative viability: 0.46 for the first, 0.571 for the second.

Compared with NCI-H441, NCI-H2170 is higher in relative viability: 0.697 for the first, 1.27 for the second.

Compared with NCI-H1703, LCLC-103H is higher in relative viability: 0.729 for the first, 1.06 for the second.

Going from NCI-H1299 to A549, the relative viability falls from 0.806 to 0.768.

Going from NCI-H1650 to ChaGo-K-1, the relative viability rises from 1.11 to 1.12.

First: Calu-6
Second: EBC-1
The relative viability of the first is higher: 0.577 for the first, 0.245 for the second.

Each cell line was assayed with NC(=O)c1ccc(N(C(N)=O)c2c(F)cccc2F)nc1-c1ccc(F)cc1F [VX-702] + COc1cccc2cc(-c3nc([C@H]4CC[C@H](C(=O)O)CC4)n4ncnc(N)c34)[nH]c12 [OSI-027] (partner 0.5 µM) in the same assay as above. Settings: first compound 0.02 µM.
In short: as §1

Compared with ABC-1, CAL-12T is higher in relative viability: 0.47 for the first, 0.624 for the second.

First: NCI-H1944
Second: NCI-H2085
The relative viability of the first is lower: 0.396 for the first, 0.87 for the second.

Compared with NCI-H2228, NCI-H441 is lower in relative viability: 0.649 for the first, 0.564 for the second.

Going from NCI-H522 to NCI-H2170, the relative viability rises from 0.649 to 0.746.

Going from LCLC-103H to NCI-H1650, the relative viability rises from 0.49 to 0.635.

Compared with ChaGo-K-1, NCI-H1648 is lower in relative viability: 0.641 for the first, 0.278 for the second.

Going from NCI-H1793 to NCI-H2342, the relative viability rises from 0.292 to 0.632.

First: NCI-H1623
Second: NCI-H1395
The relative viability of the first is lower: 0.403 for the first, 0.725 for the second.

Same assay, conditions: first compound 0.2 µM

Compared with ABC-1, CAL-12T is higher in relative viability: 0.578 for the first, 0.715 for the second.

Compared with NCI-H1944, NCI-H2085 is higher in relative viability: 0.398 for the first, 0.636 for the second.

Compared with NCI-H2228, NCI-H441 is higher in relative viability: 0.514 for the first, 0.547 for the second.

First: NCI-H522
Second: NCI-H2170
The relative viability of the first is higher: 0.718 for the first, 0.693 for the second.

First: LCLC-103H
Second: NCI-H1650
The relative viability of the first is lower: 0.485 for the first, 0.652 for the second.

First: ChaGo-K-1
Second: NCI-H1648
The relative viability of the first is higher: 0.624 for the first, 0.275 for the second.

Going from NCI-H1793 to NCI-H2342, the relative viability rises from 0.217 to 0.651.

First: NCI-H1623
Second: NCI-H1395
The relative viability of the first is lower: 0.406 for the first, 0.642 for the second.

Same assay, conditions: first compound 0.6325 µM

Compared with ABC-1, CAL-12T is higher in relative viability: 0.509 for the first, 0.661 for the second.

Going from NCI-H1944 to NCI-H2085, the relative viability rises from 0.39 to 0.726.

Going from NCI-H2228 to NCI-H441, the relative viability falls from 0.534 to 0.5.

First: NCI-H522
Second: NCI-H2170
The relative viability of the first is lower: 0.681 for the first, 0.698 for the second.

Going from LCLC-103H to NCI-H1650, the relative viability rises from 0.417 to 0.806.

Going from ChaGo-K-1 to NCI-H1648, the relative viability falls from 0.567 to 0.251.

First: NCI-H1793
Second: NCI-H2342
The relative viability of the first is lower: 0.235 for the first, 0.644 for the second.

Compared with NCI-H1623, NCI-H1395 is higher in relative viability: 0.424 for the first, 0.663 for the second.

Same assay, conditions: first compound 2 µM

Going from ABC-1 to CAL-12T, the relative viability falls from 0.615 to 0.506.

First: NCI-H1944
Second: NCI-H2085
The relative viability of the first is lower: 0.206 for the first, 0.627 for the second.

Compared with NCI-H2228, NCI-H441 is lower in relative viability: 0.683 for the first, 0.544 for the second.

Compared with NCI-H522, NCI-H2170 is higher in relative viability: 0.747 for the first, 0.762 for the second.

First: LCLC-103H
Second: NCI-H1650
The relative viability of the first is lower: 0.458 for the first, 0.541 for the second.

Compared with ChaGo-K-1, NCI-H1648 is lower in relative viability: 0.566 for the first, 0.253 for the second.

First: NCI-H1793
Second: NCI-H2342
The relative viability of the first is lower: 0.218 for the first, 0.692 for the second.

Compared with NCI-H1623, NCI-H1395 is higher in relative viability: 0.43 for the first, 0.677 for the second.

What follows are cell lines tested with CC(C)(C)c1nc(-c2cccc(NS(=O)(=O)c3c(F)cccc3F)c2F)c(-c2ccnc(N)n2)s1 [Dabrafenib] + C[C@]1(O)C[C@@H](c2nc(-c3ccc4ccc(-c5ccccc5)nc4c3)c3c(N)nccn32)C1 [Linsitinib] (partner 1 µM) in the same assay as above. Settings: first compound 0.003 µM.
In short: as §1

First: CAL-12T
Second: NCI-H1944
The relative viability of the first is lower: 0.744 for the first, 1.17 for the second.
